By Ki is commonly meant a measure of affinity in units of concentration, obtained from inhibition or displacement. A higher Ki goes with weaker binding.

Molecules are shown by their SMILES.

Our source for the Ki, Ratio and Concentration values is ChEMBL document CHEMBL1135303, “Design and synthesis of aminophenol-based factor Xa inhibitors” (Bioorg Med Chem Lett, 2002).

The target of one assay is T1, Serine protease 1 (Bos taurus, UniProt P00760).
T1 sequence (P00760 whole entry): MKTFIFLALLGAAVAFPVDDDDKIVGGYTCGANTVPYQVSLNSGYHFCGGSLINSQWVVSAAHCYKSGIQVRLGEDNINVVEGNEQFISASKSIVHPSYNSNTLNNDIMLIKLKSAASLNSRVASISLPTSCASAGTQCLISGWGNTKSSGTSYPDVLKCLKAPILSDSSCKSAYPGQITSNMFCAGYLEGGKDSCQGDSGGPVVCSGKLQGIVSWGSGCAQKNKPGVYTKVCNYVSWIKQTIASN
As to the kind of experiment: Competitive inhibition of trypsin.

For assay [1], the target named is Serine protease 1 (Homo sapiens) (UniProt P07477). As to the kind of experiment: The selectivity ratio for Trypsin and Coagulation factor Xa was determined.
In another assay the target is Coagulation factor X (Homo sapiens, UniProt P00742). As to the kind of experiment: Competitive inhibition of coagulation factor Xa.
For assay [2], the target named is T2, Prothrombin (Homo sapiens, UniProt P00734). Nature of the assay: Concentration required to double the prothrombin based clotting time in human plasma. It counts as functional, cell-free.
Assay [3] has as its target T2, Prothrombin. As to the kind of experiment: Concentration required for twofold increase in thrombin clotting time in human plasma. Type of assay: functional, cell-free.
In assay [4] the target is T2, Prothrombin. Nature of the assay: Competitive inhibition of coagulation factor IIa.

With `CCOC(=O)CCC(=O)N(C/C=C/c1cc(C(=N)N)ccc1O)c1ccc(OC2CCN(C(C)=N)CC2)c(C(F)(F)F)c1`, the results for the Ki on Serine protease 1, on Coagulation factor X and at Prothrombin [4] were 230 nM, 0.07 nM and 2280 nM, respectively. For the same molecule, the Ratio in assay [1] was 3300. Also, the results for the Concentration on Prothrombin [2] and at Prothrombin [3] were 0.8 µM and 265 µM, respectively.
For `CC(=N)N1CCC(Oc2ccc(NCc3ccc4ccc(C(=N)N)cc4c3)cc2[N+](=O)[O-])CC1`, the Ki at Serine protease 1 worked out at 7 nM; on Coagulation factor X, 0.08 nM; at Prothrombin [4], 1960 nM.
With `CC(=N)N1CCC(Oc2ccc(N(C/C=C/c3cccc(C(=N)N)c3)C(=O)c3ccc(C(=O)O)c(C(=O)O)c3)cc2C(F)(F)F)CC1`, the Ki at Serine protease 1 worked out at 10 nM; at Coagulation factor X it was 0.56 nM; at Prothrombin [4], 3260 nM. For the same molecule, the values for the Concentration at Prothrombin [2] and on Prothrombin [3] were 0.52 µM and 200 µM, respectively.
For the molecule `CC(=N)N1CCC(Oc2ccc(NC/C=C/c3cccc(C(=N)N)c3)cc2)CC1`, the Ki on Serine protease 1 worked out at 80 nM; on Coagulation factor X, 7.5 nM; on Prothrombin [4], 5000 nM.
With `CC(=N)N1CCC(Oc2ccc(NC/C=C/c3cc(C(=N)N)ccc3O)cc2C(F)(F)F)CC1`, the values for the Ki on Serine protease 1, on Coagulation factor X and on Prothrombin [4] were 200 nM, 0.1 nM and 1100 nM, respectively. The Ratio in assay [1] worked out at 2000. Moreover, the Concentration turned out to be 1.05 µM at Prothrombin [2] and 210 µM at Prothrombin [3].
As for `CC(=N)N1CCC(Oc2ccc(NC/C=C/c3cccc(C(=N)N)c3)cc2F)CC1`, the Ki on Serine protease 1 amounted to 70 nM; at Coagulation factor X it was 4.1 nM; on Prothrombin [4] it was 4700 nM. For the same molecule, the Concentration at Prothrombin [2] worked out at 0.73 µM; on Prothrombin [3], 240 µM.
For `CC(=O)N1CCC(Oc2ccc(NC/C=C/c3cc(C(=N)N)ccc3O)cc2C(F)(F)F)CC1`, the Ki on Serine protease 1 is 830 nM; on Coagulation factor X it was 18.5 nM; on Prothrombin [4] it was 480 nM. Also, the Concentration was 21 µM on Prothrombin [2] and 151 µM on Prothrombin [3].
On to `CC(=O)N1CCC(Oc2ccc(N(C/C=C/c3cc(C(=N)N)ccc3O)C(=O)CCC(=O)O)cc2C(F)(F)F)CC1`, for which the Ki was 891 nM on Serine protease 1, 3 nM at Coagulation factor X and > 5500 nM on Prothrombin [4]. Besides, the Concentration at Prothrombin [2] is 3 µM; at Prothrombin [3], 173 µM.
Regarding `CC(=N)N1CCC(Oc2ccc3c(nc(C)n3Cc3ccc4ccc(C(=N)N)cc4c3)c2[N+](=O)[O-])CC1`, the Ki at Serine protease 1 came to 3 nM; at Coagulation factor X, 0.3 nM; on Prothrombin [4], 5000 nM.
`N=C(N)c1ccc(O)c(/C=C/CN(C(=O)CCC(=O)O)c2ccc(OC3CCN(CC(=O)O)CC3)c(C(F)(F)F)c2)c1`: the Ki was 870 nM on Serine protease 1, 0.34 nM on Coagulation factor X and > 5000 nM on Prothrombin [4].
As to `CC(=N)N1CCC(Oc2ccc(N(C/C=C/c3cc(C(=N)N)ccc3O)C(=O)CCC(=O)O)cc2C(F)(F)F)CC1`, the Ki at Serine protease 1 is 280 nM; on Coagulation factor X, 0.1 nM; at Prothrombin [4], 5140 nM. In assay [1], the Ratio turned out to be 2800. Besides, the Concentration on Prothrombin [2] was found to be 0.54 µM; on Prothrombin [3] it was 174 µM.
On to `CN1CCC(Oc2ccc(NC/C=C/c3cc(C(=N)N)ccc3O)cc2C(F)(F)F)CC1`, for which the Ki is 630 nM at Serine protease 1, 0.58 nM on Coagulation factor X and 1820 nM on Prothrombin [4]. For the same molecule, the Concentration worked out at 0.98 µM on Prothrombin [2] and 156 µM at Prothrombin [3].
As for `CC(=N)N1CCC(Oc2ccc(NC/C=C/c3cccc(C(=N)N)c3)cc2[N+](=O)[O-])CC1`, the values for the Ki at Serine protease 1, on Coagulation factor X and on Prothrombin [4] were 27 nM, 0.27 nM and 2900 nM, respectively.
In the case of `CN1CCC(Oc2ccc(N(C/C=C/c3cc(C(=N)N)ccc3O)C(=O)CCC(=O)O)cc2C(F)(F)F)CC1`, the Ki is 765 nM on Serine protease 1, 0.28 nM on Coagulation factor X and > 5000 nM at Prothrombin [4].
As for `CC(=N)N1CCC(Oc2ccc(NCc3cccc(-c4cccc(C(=N)N)c4)c3)cc2[N+](=O)[O-])CC1`, the Ki on Serine protease 1 amounted to 42 nM; on Coagulation factor X it was 0.17 nM; at Prothrombin [4], 400 nM.
Consider `CC(=N)N1CCC(Oc2ccc(NC/C=C/c3cccc(C(=N)N)c3)cc2C(F)(F)F)CC1`, for which the Ki at Serine protease 1 was 50 nM; on Coagulation factor X it was 0.88 nM; at Prothrombin [4] it was 2140 nM. Further, the Concentration on Prothrombin [2] stood at 0.8 µM; on Prothrombin [3], 220 µM.
For the molecule `CCOC(=O)CCC(=O)N(C/C=C/c1cccc(C(=N)N)c1)c1ccc(OC2CCN(C(C)=N)CC2)c(C(F)(F)F)c1`, the Ki came to 76 nM on Serine protease 1, 0.55 nM on Coagulation factor X and 1000 nM at Prothrombin [4]. The Ratio in assay [1] is 140. For the same molecule, the Concentration amounted to 0.87 µM at Prothrombin [2] and 32 µM at Prothrombin [3].
As to `N=C(N)c1ccc(O)c(/C=C/CNc2ccc(OC3CCN(C(N)=O)CC3)c(C(F)(F)F)c2)c1`, the Ki on Serine protease 1 was found to be 520 nM; on Coagulation factor X, 7.3 nM; on Prothrombin [4], 250 nM.
Take `CCOC(=O)c1cc(NC/C=C/c2cccc(C(=N)N)c2)ccc1OC1CCN(C(C)=N)CC1`: the Ki on Serine protease 1 was 40 nM; on Coagulation factor X, 6.8 nM; on Prothrombin [4] it was 480 nM. Further, the Concentration on Prothrombin [2] was 2.6 µM; on Prothrombin [3] it was 15 µM.
On to `CS(=O)(=O)N1CCC(Oc2ccc(NC/C=C/c3cc(C(=N)N)ccc3O)cc2C(F)(F)F)CC1`, for which the Ki is 1250 nM at Serine protease 1 and 44 nM on Coagulation factor X.
With `CC(=N)N1CCC(Oc2ccc(N(C/C=C/c3cccc(C(=N)N)c3)C(=O)CCC(=O)O)cc2C(F)(F)F)CC1`, the Ki on Serine protease 1 amounted to 110 nM; at Coagulation factor X, 0.28 nM; on Prothrombin [4], 5000 nM. Further, the Concentration came to 0.75 µM on Prothrombin [2] and 540 µM at Prothrombin [3].
Consider `CC(=N)N1CCC(Oc2ccc(NC/C(C)=C/c3cccc(C(=N)N)c3)cc2[N+](=O)[O-])CC1`, for which the Ki on Serine protease 1 was 5 nM; at Coagulation factor X it was 0.07 nM; at Prothrombin [4] it was 1550 nM.
